# Like-named read-outs stand apart in the source and are kept apart here.
# Experiments:
# adenosine A-2 receptors = biological target: T1, adenosine A-2 receptors (Rattus norvegicus, UniProt P30543); assay: Test for affinity for brain adenosine A-2 receptors ([3H]NECA displacement, striatal membranes); type: binding; details: read-out: A2 Ki
# T1 construct: tissue Charles River (animals); host or cells: brain striatum membranes, young male rats (C-D strain)
# Procedure: Membranes for ligand binding are isolated from rat brain striatum. The tissue is homogenized in 20 vol icecold 50 mM Tris-HCl buffer (pH 7.7) using a polytron (setting for 6 to 20 seconds). The homogenate is centrifuged at 50,000 x g for 10 minutes at 4° C. The pellet is again homogenized in a polytron in 20 vol of buffer, and centrifuged as before. The pellet is finally resuspended in 40 vol of 50mM Tris-HCl (pH 7.7) per gram of original wet weight of tissue.
# Incubations are carried out at 25° C. for 60 minutes. Each tube is filtered through GF/B glass fiber filters using a vacuum. The filters are rinsed two times with 5 ml of the ice-cold buffer. […] The filters are counted by liquid scintillation spectrometry.
# Specific binding of [3H]NECA is measured as the excess over blanks run in the presence of 100 μM 2-chloroadenosine. Total membrane-bound radioactivity is about 2.5% of that added to the test tubes. […] Specific binding to membranes is about 50% of the total bound.
# Adenosine A-1 receptor [1] = biological target: T2, Adenosine A-1 receptor (Rattus norvegicus, UniProt P25099)
# T2 sequence (P25099 1-326): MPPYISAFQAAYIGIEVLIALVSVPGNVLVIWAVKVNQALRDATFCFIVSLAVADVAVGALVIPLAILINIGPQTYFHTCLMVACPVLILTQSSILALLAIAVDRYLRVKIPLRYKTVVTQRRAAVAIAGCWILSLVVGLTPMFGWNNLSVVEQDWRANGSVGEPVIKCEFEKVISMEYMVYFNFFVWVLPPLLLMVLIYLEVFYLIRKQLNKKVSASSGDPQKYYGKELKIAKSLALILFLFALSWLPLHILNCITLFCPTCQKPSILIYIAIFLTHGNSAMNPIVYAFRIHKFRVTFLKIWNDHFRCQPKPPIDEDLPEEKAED
# Adenosine A-1 receptor [2] = biological target: T2, Adenosine A-1 receptor; assay: Test for affinity for brain adenosine A-1 receptor binding sites ([3H]cyclohexyladenosine displacement, whole brain membranes); details: ratio of A2 Ki to A1 Ki
# Adenosine A-1 receptor [3] = biological target: T2, Adenosine A-1 receptor; assay: biochemical
# A-1 receptors = details: read-out: Ki at the A-1 receptors in brain membranes; cited from earlier work
# T1 sequence (P30543 whole entry): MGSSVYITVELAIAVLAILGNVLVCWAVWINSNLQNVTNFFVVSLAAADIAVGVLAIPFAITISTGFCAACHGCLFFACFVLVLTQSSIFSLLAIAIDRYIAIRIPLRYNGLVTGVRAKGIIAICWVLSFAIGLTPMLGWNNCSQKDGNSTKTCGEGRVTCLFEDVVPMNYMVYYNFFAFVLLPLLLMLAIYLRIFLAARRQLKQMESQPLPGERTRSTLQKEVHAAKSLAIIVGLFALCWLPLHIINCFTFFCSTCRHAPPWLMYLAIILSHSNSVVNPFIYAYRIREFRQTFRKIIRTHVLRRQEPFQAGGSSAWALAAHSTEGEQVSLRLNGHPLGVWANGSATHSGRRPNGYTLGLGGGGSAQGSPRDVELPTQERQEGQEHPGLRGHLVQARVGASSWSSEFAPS
Ki (adenosine A-2 receptors),A2/A1 (Adenosine A-1 receptor [2]),Compound,also measured
2600 nM,37,"3,7-Dihydro-8-(1-phenylethyl-2-phenylethyl)-1,3-dipropyl-1H-purine-2,6-dione",Ki (Adenosine A-1 receptor [1]): 71 nM
608 nM,,"CCCC(Cc1ccccc1)c1nc2c(=O)n(CCC)c(=O)n(CCC)c2[nH]1 (racemic) [3,7-Dihydro-8-[1-(phenylmethyl)butyl]-1,3-dipropyl-1H-purine-2,6-dione]",
644 nM,,"CCCn1c(=O)c2[nH]c(C(C)Cc3ccccc3)nc2n(CCC)c1=O (racemic) [3,7-Dihydro-8-[(±)-1-methyl-2-phenylethyl]-1,3-dipropyl-1H-purine-2,6-dione]",
1600 nM,,"CCCn1c(=O)c2nc(C(C)c3ccccc3)[nH]c2n(CCC)c1=O (stereo not drawn) [3,7-dihydro-8-(1-phenylethyl)-1,3-dipropyl-1H-purine-2,6-dione]",
7100 nM,,"CCCn1c(=O)c2[nH]c(C3Cc4ccccc4C3)nc2n(CCC)c1=O [3,7-dihydro-8-(2-indanyl)-1,3-dipropyl-1H-purine-2,6-dione]",
3900 nM,,"CCCn1c(=O)c2nc(C(CO)Cc3ccccc3)[nH]c2n(CCC)c1=O (stereo not drawn) [3,7-dihydro-8-[1-(hydroxymethyl)-2-phenylethyl]-1,3-dipropyl-1H-purine-2,6-dione]",
157 nM,,"CCCn1c(=O)c2[nH]c([C@H](C)Cc3ccccc3)nc2n(CCC)c1=O [3,7-dihydro-8-[(1R)-1-methyl-2-phenylethyl]-1,3-dipropyl-1H-purine-2,6-dione]",
647 nM,404,"CCCn1c(=O)c2[nH]c([C@H](CC)c3ccccc3)nc2n(CCC)c1=O [3,7-dihydro-8-[(R)-phenylpropyl]-1,3-dipropyl-1H-purine-2,6-dione]",Ki (Adenosine A-1 receptor [3]): 1.6 nM

# More lines, now with the values behind:
Compound,Ki (adenosine A-2 receptors),A2/A1 (Adenosine A-1 receptor [2]),also measured
"CCCn1c(=O)c2[nH]c(C(CC)c3ccccc3)nc2n(CCC)c1=O (racemic) [3,7-dihydro-8-[(±)-phenylpropyl]-1,3-dipropyl-1H-purine-2,6-dione]",1100 nM,216,Ki (Adenosine A-1 receptor [3]): 5.1 nM
"CCCn1c(=O)c2[nH]c([C@@H](CC)c3ccccc3)nc2n(CCC)c1=O [3,7-Dihydro-8-[(S)-phenylpropyl]-1,3-dipropyl-1H-purine-2,6-dione]",1560 nM,30,Ki (Adenosine A-1 receptor [3]): 52 nM
"C=CCn1c(=O)c2[nH]c(C(C)c3ccccc3)nc2n(CC=C)c1=O (stereo not drawn) [3,7-dihydro-8-(1-phenylethyl)-1,3-di-2-propenyl-1H-purine-2,6-dione]",2400 nM,119,Ki (Adenosine A-1 receptor [3]): 20 nM
"CCCn1c(=O)c2nc(C(CC)Cc3ccccc3)[nH]c2n(CCC)c1=O (stereo not drawn) [3,7-dihydro-8-[1-(phenylmethyl)propyl]-1,3-dipropyl-1H-purine-2,6-dione]",71700 nM,,
"CCCn1c(=O)c2nc([C@@H](C)Cc3ccccc3)[nH]c2n(CCC)c1=O [3,7-dihydro-8-[(1S)-1-methyl-2-phenylethyl]-1,3-dipropyl-1H-purine-2,6-dione]",848 nM,,
CCCn1c(=O)c2[nH]c(-c3ccc(OCC(=O)NCCN)cc3)nc2n(CCC)c1=O [XAC],,,Ki (A-1 receptors): 1.2 ± 0.5 nM

# Reference: patent US5047534A (Merrell Dow Pharmaceuticals Inc., priority 1990, dated 1991)
